Article PMC5591184 (2017)

How the values were obtained:
[1] = tested on: (G4T4G4)2 (DNA, G4) GGGGTTTTGGGG; assay: UV-vis absorption titration; settings: 100 mM NaCl; 10 mM Tris-HCl, 1 mM EDTA, pH 7.5, room temperature; 2 μM ZnTMPyP4
[2] = tested on: T-G10 (DNA, G4) AGGGTTAGGTTTAGGGTTAGGG; assay: triplet decay, laser flash photolysis; settings: 100 mM NaCl; 10 mM Tris-HCl, 1 mM EDTA, pH 7.5, room temperature; 2 μM ZnTMPyP4; intercalation 53%
[3] = tested on: T-G8 (DNA, G4) AGGGTTATGGTTAGGGTTAGGG; assay: triplet decay, laser flash photolysis; settings: 100 mM NaCl; 10 mM Tris-HCl, 1 mM EDTA, pH 7.5, room temperature; 2 μM ZnTMPyP4; intercalation 63%
[4] = tested on: (TG4T)4 (DNA, G4) TGGGGT; assay: UV-vis absorption titration; settings: 100 mM KCl; 10 mM Tris-HCl, 1 mM EDTA, pH 7.5, room temperature; 2 μM ZnTMPyP4
[5] = tested on: AG3(T2AG3)3 (DNA, G4) AGGGTTAGGGTTAGGGTTAGGG; assay: UV-vis absorption titration; settings: 100 mM NaCl; 10 mM Tris-HCl, 1 mM EDTA, pH 7.5, room temperature; 2 μM ZnTMPyP4

binding constants [1]: 100000 M⁻¹ | binding [2]: yes | binding [3]: yes | binding constants [4]: 1e+06 M⁻¹ | binding constants [5]: 3.6e+06 M⁻¹
Structure (SMILES): C[n+]1ccc(-c2c3nc(c(-c4cc[n+](C)cc4)c4ccc([n-]4)c(-c4cc[n+](C)cc4)c4nc(c(-c5cc[n+](C)cc5)c5ccc2[n-]5)C=C4)C=C3)cc1.O.[Zn+2]
